The test system of series [1] is Staphylococcus aureus ATCC 6538 adherent organisms (biofilm). The series is described as follows: MIC/MBC in adherent-cell biofilm of S. aureus ATCC 6538. The note with it: for Adherent organisms (biofilm) MIC^b: S. aureus ATCC 6538, 20 h; for Adherent organisms (biofilm) MBC^b: S. aureus ATCC 6538, regrowth 20 h in antibiotic-free MHB. Format: cell-based. The method, then: An adherent biofilm for susceptibility testing was formed using a clinical isolate of Staphylococcus aureus (ATCC 6538). S. aureus biofilms were prepared in a tissue culture non-treated polystyrene 96-well plate (Corning) and washed with phosphate-buffered saline (PBS) to remove unbound bacteria. Subsequently, serial twofold dilutions of the compounds in MHB were added to wells containing adherent organisms. The polystyrene plates were incubated for 20 h at 37° C. The MIC was taken as the lowest drug concentration at which observable growth was inhibited.

Series [2] concerns methicillin-resistant Staphylococcus aureus (MRSA) ATCC 43300. Description: MIC/MBC micro dilution against MRSA. The note with it: for MIC / MBC: Staphylococcus aureus; for MRSA MBC: MRSA ATCC 43300, MHB, 20 hours, Table 2.
Series [3] deals with Staphylococcus aureus ATCC 6538 planktonic organisms (not in biofilm). The series is described as follows: MIC/MBC against planktonic S. aureus ATCC 6538. The series is classed as cell-based.
The target in a further series is S. aureus HMGR (Staphylococcus aureus, UniProt Q9FD86). Description: biochemical.
S. aureus HMGR, sequence (Q9FD86 entry or part of it): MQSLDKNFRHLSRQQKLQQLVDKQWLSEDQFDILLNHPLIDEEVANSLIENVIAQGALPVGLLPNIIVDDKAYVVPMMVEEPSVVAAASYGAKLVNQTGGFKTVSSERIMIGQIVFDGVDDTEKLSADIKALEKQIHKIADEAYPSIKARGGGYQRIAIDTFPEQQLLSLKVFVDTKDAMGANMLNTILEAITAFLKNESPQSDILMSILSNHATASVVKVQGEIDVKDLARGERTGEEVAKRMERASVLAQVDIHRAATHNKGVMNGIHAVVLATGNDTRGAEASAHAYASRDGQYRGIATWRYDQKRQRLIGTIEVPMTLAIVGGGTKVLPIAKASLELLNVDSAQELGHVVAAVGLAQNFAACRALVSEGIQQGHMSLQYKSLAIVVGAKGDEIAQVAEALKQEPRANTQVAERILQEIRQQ
Another series deals with J774A.1 cells. The series is described as follows: In vitro cell viability/cytotoxicity MTS assay. The series is classed as cell-based. The note with it: 100 μM, 24 hours. The method, then: Cytotoxicity of the compounds was evaluated using J774A.1 cells (mitochondrial function) in the CellTiter 96® AQueous Non-Radioactive Cell Proliferation Assay (Promega). […] Formazan is measured by measuring the absorbance at 490 nm. Briefly, ˜2×10^4 J774A.1 cells suspended in 200 μL DMEM supplemented with 10% fetal bovine serum (FBS), L-glutamine, NaHCO3, pyridoxine-HCl, and […] glucose and preserved with 1% penicillin-streptomycin solution were seeded in 96-well plates and incubated at 37° C. in a 5% CO2 atmosphere. The cells were cultured for 24 hours (60% confluency) before the assays. The J774A.1 cells were further incubated with 100 μM of compounds (2f, […], 2j, and 2e) and DMSO as a control for 24 hours. The culture media was discarded, and the cells in each well were washed with PBS and re-suspended with 100 μL of cell culture media prior to addition of the assay reagent. The plates were incubated for 4 hours at 37° C. in a humidified 5% CO2 atmosphere. The absorbance at 490 nm was recorded using a 96-well Elisa plate reader (SoftMax ProInc., USA). Results were expressed as the percentage mean absorbance by cells upon incubation with various treatments (compounds 2f, 2j, 2i, and 2e) with respect to incubation with DMSO. The results are expressed as means from six measurements±SD.
For orientation: Tetrazolium assays rely on reduction of a dye to a coloured formazan, in cell work by metabolically active cells.

Series [4] concerns vancomycin resistant Enterococcus faecalis (VRE) ATCC 51299. The series is described as follows: MIC/MBC micro dilution against VRE. The following applies: VRE ATCC 51299, MHB, 20 hours.
The test system of series [5] is C. elegans infected with VRE. Description: Treatment of C. elegans infected with VRE. The following applies: VRE-infected worms, 100 μM; for Log CFU/worm: 16 hours treatment; for Log Reduction: versus DMSO control.
Series [6] has as its system Candida albicans ATCC 18804. Description: MIC/MFC against Candida albicans in YM broth. The series is classed as cell-based. The following applies: yeast medium broth. The method, then:
Antifungal activities of 22 HMG-CoA Reductase inhibitors were initially tested at 100 μM concentration against Candida albicans ATCC 18804.

Series [7] deals with C. elegans infected with MRSA. Description: Treatment of C. elegans infected with MRSA. The note with it: MRSA-infected worms, 100 μM; for Log CFU/worm: 16 hours treatment; for Log Reduction: versus DMSO control.
For series [8], the system named is vancomycin intermediate Staphylococcus aureus (VISA) NRS1. The series is described as follows: MIC/MBC against clinical VISA isolate.
Series [9] has as its system clinical methicillin-resistant Staphylococcus aureus (MRSA) isolates. The series is described as follows: MIC/MBC against clinical MRSA isolates.

≈ marks a conversion by molar mass, not a printed value. Marks after values point to notes of the source that are not given here.

Turning to `CC(C)CCCc1ccc(NS(=O)(=O)c2ccc(O)c(C(=O)O)c2)cc1` [Compound 2i, 2-hydroxy-5-[N-(4-(4-methylpentyl)phenyl]sulfamoyl)benzoic acid], in [1], the “Adherent organisms (biofilm) MIC^b” value was 128 µM and the “Adherent organisms (biofilm) MBC^b” value turned out to be 128 µM. Besides, in series [2], the minimal inhibitory concentration (MIC) (as a rule, the lowest concentration that inhibits growth of the organism) was determined as 64 µM (≈ 24.2 µg/mL). Besides, in series [3], the “Planktonic organisms (not in biofilm) MBC” value is 128 µM and the “Planktonic organisms (not in biofilm) MIC” value is 128 µM. Further, half-maximal inhibition on S. aureus HMGR (IC50) required 36 ± 4 µM. Further, in the series on J774A.1 cells, the “percentage mean absorbance at 490 nm (MTS) versus DMSO” value is on record as “no significant differences in percentage mean absorption”.

Regarding `CCCCCCCc1ccc(NS(=O)(=O)c2ccc(O)c(C(=O)O)c2)cc1` [Compound 2e, 5-[N-(4-heptylphenyl)sulfamoyl]-2-hydroxybenzoic acid], the “VRE MBC” value in series [4] is 64/64. The “Log CFU/worm” value worked out at 0.86 ± 1.03 Log CFU/worm in series [5] and 1.80 ± 0.10 Log CFU/worm in [7]. Moreover, the “Log Reduction” value was 4.04* in series [5] and 3.24* in [7]. Also, in series [1], the “Adherent organisms (biofilm) MIC^b” value was found to be 64 µM. Besides, the “Adherent organisms (biofilm) MBC^b” value in [1] is 128 µM. In addition, the Candida albicans MFC in [6] came to 128 µM. In addition, the Candida albicans MIC in [6] amounted to 64 µM. In series [2], the “MRSA MBC” value is 64/64. Also, the minimal bactericidal concentration (MBC) (in general, the smallest concentration meeting the test's criterion for killing) in [2] is 64 µM (≈ 25.1 µg/mL); in [8], 16 µM (≈ 6.26 µg/mL); in series [9] (MRSA / NRS123 / USA400) it was 32 µM (≈ 12.5 µg/mL); in [9] (MRSA / NRS382 / USA100), 32 µM (≈ 12.5 µg/mL); in [9] (MRSA / NRS383 / USA200) it was 32 µM (≈ 12.5 µg/mL); in series [9] (MRSA / NRS384 / USA300) it was 32 µM (≈ 12.5 µg/mL). The minimum bactericidal concentration (MBC) was 16 µM (≈ 6.26 µg/mL) in series [9] (MRSA / NRS385 / USA500); 32 µM (≈ 12.5 µg/mL) in [9] (MRSA / NRS386 / USA700); 32 µM (≈ 12.5 µg/mL) in series [9] (MRSA / NRS387 / USA800); 32 µM (≈ 12.5 µg/mL) in [9] (MRSA / NRS483); 32 µM (≈ 12.5 µg/mL) in series [9] (MRSA / NRS484). In addition, the MIC in [2] stood at 64 µM (≈ 25.1 µg/mL); in [8], 16 µM (≈ 6.26 µg/mL); in [9] (MRSA / NRS123 / USA400) it was 32 µM (≈ 12.5 µg/mL); in [9] (MRSA / NRS382 / USA100) it was 32 µM (≈ 12.5 µg/mL); in series [9] (MRSA / NRS383 / USA200) it was 16 µM (≈ 6.26 µg/mL); in [9] (MRSA / NRS384 / USA300), 32 µM (≈ 12.5 µg/mL). The MIC amounted to 16 µM (≈ 6.26 µg/mL) in series [9] (MRSA / NRS385 / USA500); 32 µM (≈ 12.5 µg/mL) in [9] (MRSA / NRS386 / USA700); 16 µM (≈ 6.26 µg/mL) in series [9] (MRSA / NRS387 / USA800); 16 µM (≈ 6.26 µg/mL) in series [9] (MRSA / NRS483); 16 µM (≈ 6.26 µg/mL) in [9] (MRSA / NRS484). The “Planktonic organisms (not in biofilm) MBC” value in [3] is 64 µM. In series [3], the “Planktonic organisms (not in biofilm) MIC” value is 64 µM. For the same compound, the IC50 (as a rule, the concentration at which inhibition is half-maximal) on S. aureus HMGR amounted to 28 µM. Also, the “percentage mean absorbance at 490 nm (MTS) versus DMSO” value in the series with J774A.1 cells is “no significant differences in percentage mean absorption”.

For the compound `O=C(O)c1cc(S(=O)(=O)Nc2ccc(CCC3CCCCC3)cc2)ccc1O` [Compound 2l, 5-[N-(4-(2-cyclohexylethyl)phenyl)sulfamoyl]-2-hydroxybenzoic acid], the “VRE MBC” value in [4] is on record as 64/64. Moreover, the “Log CFU/worm” value in series [5] is 0.43 ± 0.68 Log CFU/worm; in [7] it was 2.20 ± 0.43 Log CFU/worm. The “Log Reduction” value in [5] is reported as 4.47*; in [7], 2.84*. For the same compound, the “MRSA MBC” value in series [2] is listed as 32/32. For the same compound, the minimum bactericidal concentration (MBC) is 32 µM (≈ 12.9 µg/mL) in [2]; 16 µM (≈ 6.46 µg/mL) in series [8]; 16 µM (≈ 6.46 µg/mL) in [9] (MRSA / NRS123 / USA400); 16 µM (≈ 6.46 µg/mL) in [9] (MRSA / NRS382 / USA100); 16 µM (≈ 6.46 µg/mL) in series [9] (MRSA / NRS383 / USA200); 16 µM (≈ 6.46 µg/mL) in series [9] (MRSA / NRS384 / USA300). Also, the MBC in series [9] (MRSA / NRS385 / USA500), in series [9] (MRSA / NRS386 / USA700), in [9] (MRSA / NRS387 / USA800), in [9] (MRSA / NRS483) and in series [9] (MRSA / NRS484) was 16 µM (≈ 6.46 µg/mL) in each case. For the same compound, the minimal inhibitory concentration (MIC) in series [2] turned out to be 32 µM (≈ 12.9 µg/mL); in series [8], 16 µM (≈ 6.46 µg/mL); in series [9] (MRSA / NRS123 / USA400) it was 16 µM (≈ 6.46 µg/mL); in series [9] (MRSA / NRS382 / USA100), 16 µM (≈ 6.46 µg/mL); in series [9] (MRSA / NRS383 / USA200) it was 16 µM (≈ 6.46 µg/mL); in [9] (MRSA / NRS384 / USA300), 16 µM (≈ 6.46 µg/mL). Further, the MIC in series [9] (MRSA / NRS385 / USA500) was 16 µM (≈ 6.46 µg/mL); in series [9] (MRSA / NRS386 / USA700), 16 µM (≈ 6.46 µg/mL); in [9] (MRSA / NRS387 / USA800), 16 µM (≈ 6.46 µg/mL); in series [9] (MRSA / NRS483), 8 µM (≈ 3.23 µg/mL); in series [9] (MRSA / NRS484) it was 16 µM (≈ 6.46 µg/mL). Besides, the IC50 on S. aureus HMGR amounted to 16.2 ± 10 µM.

The values are drawn from patent publication US9604925B2, “Class II HMG-CoA reductase inhibitors and methods of use” (Purdue Research Foundation, priority 2012, dated 2017).
